Series [1] deals with Puccinia Recondita f. sp. Tritici. The series is described as follows: Puccinia recondita f. sp. tritici / wheat / leaf disc preventative (brown rust). Conditions: foliar, 200 ppm in the applied formulation, wheat leaf segments cv. Kanzler, preventative (inoculated 1 day after application), assessed 7 to 9 days after application, read-out: disease control compared to untreated control leaf disks. The class given is in vivo. How it is done: Leaf disks or leaf segments of various plant species are cut from plants grown in a greenhouse. The cut leaf disks or segments are placed in multiwell plates (24-well format) onto water agar. The leaf disks are sprayed with a test solution before (preventative) or after (curative) inoculation. Compounds to be tested are prepared as DMSO solutions (max. 10 mg/ml) which are diluted to the appropriate concentration with 0.025% Tween20 just before spraying. The inoculated leaf disks or segments are incubated under defined conditions (temperature, relative humidity, light, etc.) according to the respective test system. A single evaluation of disease level is carried out 3 to 14 days after inoculation, depending on the pathosystem. Percent disease control relative to the untreated check leaf disks or segments is then calculated. Wheat leaf segments cv. Kanzler were placed on agar in multiwell plates (24-well format) and sprayed with the formulated test compound diluted in water. The leaf disks were inoculated with a spore suspension of the fungus 1 day after application. The inoculated leaf segments were incubated at 19° C. and 75% relative humidity (rh) under a light regime of 12 hours light/12 hours darkness in a climate cabinet and the activity of a compound was assessed as percent disease control compared to untreated when an appropriate level of disease damage appears in untreated check leaf segments (7 to 9 days after application). The following compounds at 200 ppm in the applied formulation give at least 80% disease control in this test when compared to untreated control leaf disks under the same conditions, which show extensive disease development.

Series [2] has the same test system. The series is described as follows: Puccinia recondita f. sp. tritici / wheat / leaf disc curative (brown rust). The class given is in vivo. Conditions: foliar, 200 ppm in the applied formulation, wheat leaf segments cv. Kanzler, curative (applied 1 day after inoculation), assessed 6 to 8 days after application, read-out: disease control compared to untreated control leaf disks. The method, then: Leaf disks or leaf segments of various plant species are cut from plants grown in a greenhouse. The cut leaf disks or segments are placed in multiwell plates (24-well format) onto water agar. The leaf disks are sprayed with a test solution before (preventative) or after (curative) inoculation. Compounds to be tested are prepared as DMSO solutions (max. 10 mg/ml) which are diluted to the appropriate concentration with 0.025% Tween20 just before spraying. The inoculated leaf disks or segments are incubated under defined conditions (temperature, relative humidity, light, etc.) according to the respective test system. A single evaluation of disease level is carried out 3 to 14 days after inoculation, depending on the pathosystem. Percent disease control relative to the untreated check leaf disks or segments is then calculated.
Wheat leaf segments cv. Kanzler are placed on agar in multiwell plates (24-well format). The leaf segments are then inoculated with a spore suspension of the fungus. Plates were stored in darkness at 19° C. and 75% relative humidity. The formulated test compound diluted in water was applied 1 day after inoculation. The leaf segments were incubated at 19° C. and 75% relative humidity under a light regime of 12 hours light/12 hours darkness in a climate cabinet and the activity of a compound was assessed as percent disease control compared to untreated when an appropriate level of disease damage appears in untreated check leaf segments (6 to 8 days after application).
The following compounds at 200 ppm in the applied formulation give at least 80% disease control in this test when compared to untreated control leaf disks under the same conditions, which show extensive disease development.

The subject of series [3] is Glomerella Lagenarium (Colletotrichum Lagenarium). Briefly: Glomerella lagenarium (Colletotrichum lagenarium) liquid culture / cucumber / preventative (anthracnose). The class given is cell-based. Conditions: Colletotrichum orbiculare; 20 ppm in the applied formulation; liquid culture in PDB, 24° C., 3 to 4 days after application; read-out: disease control compared to untreated control (inhibition of growth measured photometrically). The method, then:
Mycelia fragments or conidia suspensions of a fungus prepared either freshly from liquid cultures of the fungus or from cryogenic storage, are directly mixed into nutrient broth. DMSO solutions of the test compound (max. 10 mg/ml) are diluted with 0.025% Tween20 by a factor of 50 and 10 μl of this solution is pipetted into a microtiter plate (96-well format). The nutrient broth containing the fungal spores/mycelia fragments is then added to give an end concentration of the tested compound. The test plates are incubated in the dark at 24° C. and 96% relative humidity. The inhibition of fungal growth is determined photometrically after 2 to 7 days, depending on the pathosystem, and percent antifungal activity relative to the untreated check is calculated.
Conidia of the fungus from cryogenic storage are directly mixed into nutrient broth (PDB—potato dextrose broth). After placing a (DMSO) solution of test compound into a microtiter plate (96-well format), the nutrient broth containing the fungal spores is added. The test plates are incubated at 24° C. and the inhibition of growth is measured photometrically 3 to 4 days after application.
The following compounds at 20 ppm in the applied formulation give at least 80% disease control in this test when compared to untreated control under the same conditions, which show extensive disease development.

The structures appear in SMILES notation.

Regarding `CC(=O)Nc1ccc(-c2noc(C(F)(F)F)n2)cc1C` [Compound 1.3, N-[2-methyl-4-[5-(trifluoromethyl)-1,2,4-oxadiazol-3-yl]phenyl]acetamide], the melting point (usually the temperature of the solid-liquid transition) was in the range of 153 to 179 °C. For the same compound, the pest or weed control at 200 ppm in series [1] was at least 80%. Further, the pest or weed control at 200 ppm in series [2] was at least 80%. For the same compound, in series [3], the inhibition (in general, the percentage by which the read-out fell short of the control) at 20 ppm is at least 80%.
With `CC(=O)Nc1ccc(-c2noc(C(F)(F)F)n2)cc1F` [Compound 1.7, N-[2-fluoro-4-[5-(trifluoromethyl)-1,2,4-oxadiazol-3-yl]phenyl]acetamide], the melting point was in the range of 120 to 126 °C. Moreover, in series [1], the pest or weed control at 200 ppm was at least 80%. Besides, the pest or weed control at 200 ppm in series [2] is at least 80%. The inhibition at 20 ppm in series [3] was at least 80%.
Regarding `CCOC(=O)Nc1ccc(-c2noc(C(F)(F)F)n2)cc1F` [Compound 1.9, ethyl N-[2-fluoro-4-[5-(trifluoromethyl)-1,2,4-oxadiazol-3-yl]phenyl]carbamate], the melting point was in the range of 86 to 91 °C. Also, the pest or weed control at 200 ppm in series [1] was at least 80%. Besides, the pest or weed control at 200 ppm in series [2] was at least 80%. The inhibition at 20 ppm in series [3] was at least 80%.
`CON(C)C(=O)Nc1ccc(-c2noc(C(F)(F)F)n2)cc1C` [Compound 1.10, 1-methoxy-1-methyl-3-[2-methyl-4-[5-(trifluoromethyl)-1,2,4-oxadiazol-3-yl]phenyl]urea]: the melting point lay within 73 to 76 °C. Moreover, the pest or weed control at 200 ppm in series [1] is at least 80%. The pest or weed control at 200 ppm in series [2] is at least 80%. For the same compound, the inhibition at 20 ppm in series [3] was at least 80%.

These data come from US20190284148A1, “MICROBIOCIDAL OXADIAZOLE DERIVATIVES” (SYNGENTA PARTICIPATIONS AG, priority 2016, published 2019).
